In patent US9863966B2 (priority 2012, dated 2018):

Key:
[1] = system: monoclonal antibody from hybridoma cell line NM4.3F5.C10.B7.B2.B2.C4; assay type: binding, sheep
[2] = cited from earlier work
[3] = cited from earlier work; for plasma elimination half-life: Demerol Prescribing Information datasheet; for half-life: Latta et al., 2002
[4] = cited from earlier work; remark: listed apart in the source

| SMILES | % Cross Reactivity [1] | further results |
| --- | --- | --- |
| COc1ccc2c3c1O[C@H]1C(=O)CC[C@H]4[C@@H](C2)N(C)CC[C@]314 [Hydrocodone] | <1% | – |
| CC(C)=CCN1CCC2(C)c3cc(O)ccc3CC1C2C (stereo not shown) [Pentazocine] | <1% | – |
| CCCC(C)(COC(N)=O)COC(N)=O [Meprobamate] | <1% | – |
| CN1CC[C@]23CCCC[C@H]2[C@H]1Cc1ccc(O)cc13 [Levorphanol] | <1% | – |
| CCC(=O)C(CC(C)N(C)C)(c1ccccc1)c1ccccc1 (stereo not shown) [Methadone] | <1% | – |
| CN1CCN(C(=O)OC2c3nccnc3C(=O)N2c2ccc(Cl)cn2)CC1 (stereo not shown) [Zopiclone] | <1% | – |
| Oc1ccc2c3c1O[C@H]1[C@@H](O)CC[C@@]4(O)[C@@H](C2)N(CC2CCC2)CC[C@]314 [Nalbuphine] | <1% | – |
| CCN(C(C)=O)c1cccc(-c2ccnc3c(C#N)cnn23)c1 [Zaleplon] | <1% | – |
| CCO[C@@H]1O[C@H](C(=O)O)[C@@H](O)[C@H](O)[C@H]1O [Ethyl-Glucuronide] | <1% | – |
| CCOC(=O)C1(c2ccccc2)CCNCC1 [Normeperidine] | 100% | analgesic effectiveness relative to parent compound ([2]; relative to meperidine): half as effective; plasma elimination half-life [3]: 15 to 20 h; half-life [3]: 14 to 48 h; convulsant activity relative to parent compound ([4]; relative to meperidine): more active as a convulsant; neurotoxic potential relative to parent compound ([4]; relative to meperidine): up to 3 times; IC50 (antibody sensitivity) [1]: about 0.5 ng/ml |
| Cc1ccc(-c2nc3ccc(C)cn3c2CC(=O)N(C)C)cc1 [Zolpidem] | <1% | – |
| COc1ccc2c3c1O[C@H]1[C@@H](O)C=C[C@H]4[C@@H](C2)N(C)CC[C@@]341 [Codeine] | <1% | – |
| NC1(c2ccccc2Cl)CCCCC1=O (stereo not shown) [Norketamine] | <1% | – |
| COc1ccc2c3c1O[C@H]1C(=O)CC[C@@]4(O)[C@@H](C2)N(C)CC[C@]314 [Oxycodone] | <1% | – |
| O=C(O)[C@H]1O[C@@H](OCC(Cl)(Cl)Cl)[C@H](O)[C@@H](O)[C@@H]1O [Urochloralic Acid] | <1% | – |
| CN1CC[C@]23c4c5ccc(O)c4O[C@H]2C(=O)CC[C@@]3(O)[C@H]1C5 [Oxymorphone] | <1% | – |
| CCOC(=O)C1(c2ccccc2)CCN(C)CC1 [Meperidine] | 102.5% | potency compared to morphine (times less potent) ([2]; Latta et al., 2002): 7-10 times; eliminated in the form of normeperidine ([3]; Baselt, 2008): around 17%; excreted unchanged in urine ([3]; Baselt, 2008): About 7%; plasma elimination half-life [3]: 3 to 4 h; half-life [3]: 3 to 6 h; fraction reaching systematic circulation (first-pass metabolism) ([3]; in vivo): around 50%; time of peak plasma concentrations after administration ([3]; intramuscular injection): 1 to 2 h; administered dose excreted in urine ([3]; within 24 hours, Moffat et al., 2003): Approximately 70%; daily dose reported to cause grand mal seizures ([4]; as low as, Latta et al., 2002): ≥ 260 mg; dose reported as causing muscle twitches or tremors ([4]; as low as, Latta et al., 2002): ≥ 46 mg per day |
| O=C(O)C(O)C(O)C(=O)O.Oc1ccc2c(c1)[C@@]13CCCC[C@@]1(O)[C@@H](C2)N(CC1CCC1)CC3 [Butorphanol Tartrate] | <1% | – |
